biological target: human NK-3 receptor (Homo sapiens (Human), UniProt P29371); test: 3H-SB222200 binding competition assay with human NK-3 receptor; details: 3H-SB222200 displacement, CHO cell membranes expressing human NK3 receptor; read-out: Ki range
Experimental: The affinity of compounds of the invention for the tachykinin receptors was determined by measuring the ability of the compounds of the invention to displace a radiolabeled ligand from its specifics binding site.
^3H-SB222200 Binding Competition Assay with Human NK-3 Receptor
The ability of the compounds of the invention to inhibit the binding of the NK-3 receptor selective antagonist SB222200 was assessed by an in vitro radioligand binding assay. Membranes were prepared from Chinese hamster ovary recombinant cells which express the human NK3 receptor. The membranes were incubated with 5 nM ^3H-SB222200_(ARC) in a HEPES 25 mM/NaCl 0.1M/CaCl2 1 mM/MgCl2 5 Mm/BSA 0.5%/Saponin 10 μg/ml buffer at pH 7.4 and various concentrations of the compounds of the invention. The amount of tritiated SB222200 bound to the receptor was determined after filtration by the quantification of membrane associated radioactivity using the TopCount-NXT reader (Packard). […] In Table 3 biological results obtained using the ^3H-SB222200 binding competition assay with compounds of the invention are set out in tabulated form. In this table the calculated Ki is given. The Ki value obtained (in accordance with the protocol set forth above) is represented as follows: “+++” means Ki<500 nM; “++” means 500 nM≤Ki≤1 μM; “+” means 1 μM<Ki≤5 μM; “#” means Ki>5 μM.

Chain of human NK-3 receptor (P29371 whole entry): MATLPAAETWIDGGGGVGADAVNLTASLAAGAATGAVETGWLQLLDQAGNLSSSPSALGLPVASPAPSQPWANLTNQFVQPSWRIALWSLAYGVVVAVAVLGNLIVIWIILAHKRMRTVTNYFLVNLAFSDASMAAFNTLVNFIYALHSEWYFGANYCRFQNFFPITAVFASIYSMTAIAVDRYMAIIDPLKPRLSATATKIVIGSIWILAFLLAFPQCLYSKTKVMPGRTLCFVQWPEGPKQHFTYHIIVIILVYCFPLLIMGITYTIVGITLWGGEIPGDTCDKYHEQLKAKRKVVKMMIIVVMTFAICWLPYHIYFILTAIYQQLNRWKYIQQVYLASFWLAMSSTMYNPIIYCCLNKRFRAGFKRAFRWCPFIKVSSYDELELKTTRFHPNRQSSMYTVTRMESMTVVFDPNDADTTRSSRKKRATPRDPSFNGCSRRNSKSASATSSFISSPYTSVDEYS

Row | Ki | SMILES
1 | 1000 to 5000 nM | O=C(c1ccc(-c2ccccc2)cc1)N1CCn2c(nnc2-c2ccccn2)C1 [Compound 6, [1,1′-biphenyl]-4-yl(3-(pyridin-2-yl)-5,6-dihydro-[1,2,4]triazolo[4,3-a]pyrazin-7(8H)-yl)methanone]
2 | 1000 to 5000 nM | O=C(c1ccc(-c2cccs2)cc1)N1CCn2c(nnc2-c2csc(CS(=O)(=O)c3ccc(Cl)cc3)n2)C1 [Compound 198, (3-(2-(((4-chlorophenyl)sulfonyl)methyl)thiazol-4-yl)-5,6-dihydro-[1,2,4]triazolo[4,3-a]pyrazin-7(8H)-yl)(4-(thiophen-2-yl)phenyl)methanone]
3 | < 500 nM | O=C(c1ccc(-c2cccs2)cc1)N1CCn2c(nnc2-c2csc(-c3ccccc3F)n2)C1 [Compound 181, (3-(2-(2-fluorophenyl)thiazol-4-yl)-5,6-dihydro-[1,2,4]triazolo[4,3-a]pyrazin-7(8H)-yl)(4-(thiophen-2-yl)phenyl)methanone]
4 | < 500 nM | O=C(c1ccc(-c2ccc(F)cc2)cc1)N1CCn2c(nnc2-c2csc(-c3ccccc3F)n2)C1 [Compound 183, (4′-fluoro-[1,1′-biphenyl]-4-yl)(3-(2-(2-fluorophenyl)thiazol-4-yl)-5,6-dihydro-[1,2,4]triazolo[4,3-a]pyrazin-7(8H)-yl)methanone]
5 | < 500 nM | O=C(c1ccc(F)cc1)N1CCn2c(nnc2-c2csc(-c3ccc(F)cc3)n2)C1 [Compound 32, (4-fluorophenyl)(3-(2-(4-fluorophenyl)thiazol-4-yl)-5,6-dihydro-[1,2,4]triazolo[4,3-a]pyrazin-7(8H)-yl)methanone]
6 | 1000 to 5000 nM | O=C(c1ccc(-c2cccs2)cc1)N1CCn2c(nnc2-c2csc(-c3ccc(N4CCOCC4)cc3)n2)C1 [Compound 239, (3-(2-(4-morpholinophenyl)thiazol-4-yl)-5,6-dihydro-[1,2,4]triazolo[4,3-a]pyrazin-7(8H)-yl)(4-(thiophen-2-yl)phenyl)methanone]
7 | < 500 nM | Cn1nc(-c2nnc3n2CCN(C(=O)c2ccc(-c4cccs4)cc2)C3)cc1-c1ccccc1 [Compound 222, (3-(1-methyl-5-phenyl-1H-pyrazol-3-yl)-5,6-dihydro-[1,2,4]triazolo[4,3-a]pyrazin-7(8H)-yl)(4-(thiophen-2-yl)phenyl)methanone]
8 | 1000 to 5000 nM | O=C(c1ccc(-c2ccccc2)cc1)N1CCn2c(nnc2-c2csc(Cn3cnc(Cl)c3Cl)n2)C1 [Compound 186, [1,1′-biphenyl]-4-yl(3-(2-((4,5-dichloro-1H-imidazol-1-yl)methyl)thiazol-4-yl)-5,6-dihydro-[1,2,4]triazolo[4,3-a]pyrazin-7(8H)-yl)methanone]
9 | 1000 to 5000 nM | O=C(c1ccc(F)cc1)N1CCn2c(nnc2-c2csc(-c3ccncc3)n2)C1 [Compound 218, (4-fluorophenyl)(3-(2-(pyridin-4-yl)thiazol-4-yl)-5,6-dihydro-[1,2,4]triazolo[4,3-a]pyrazin-7(8H)-yl)methanone]
10 | < 500 nM | COc1ccccc1-c1nc(-c2nnc3n2CCN(C(=O)c2ccc(-c4cccs4)cc2)C3)cs1 [Compound 202, (3-(2-(2-methoxyphenyl)thiazol-4-yl)-5,6-dihydro-[1,2,4]triazolo[4,3-a]pyrazin-7(8H)-yl)(4-(thiophen-2-yl)phenyl)methanone]
11 | < 500 nM | O=C(c1ccc(-c2cccs2)cc1)N1CCn2c(nnc2-c2n[nH]c(-c3ccccc3)n2)C1 [Compound 179, (3-(5-phenyl-1H-1,2,4-triazol-3-yl)-5,6-dihydro-[1,2,4]triazolo[4,3-a]pyrazin-7(8H)-yl)(4-(thiophen-2-yl)phenyl)methanone]
12 | < 500 nM | O=C(c1ccc(F)cc1)N1CCn2c(nnc2-c2csc(-c3cccs3)n2)C1 [Compound 193, (4-fluorophenyl)(3-(2-(thiophen-2-yl)thiazol-4-yl)-5,6-dihydro-[1,2,4]triazolo[4,3-a]pyrazin-7(8H)-yl)methanone]
13 | < 500 nM | O=C(c1ccc(-c2cccs2)cc1)N1CCn2c(nnc2-c2nc(-c3ccccc3)ns2)C1 [Compound 211, (3-(3-phenyl-1,2,4-thiadiazol-5-yl)-5,6-dihydro-[1,2,4]triazolo[4,3-a]pyrazin-7(8H)-yl)(4-(thiophen-2-yl)phenyl)methanone]
14 | < 500 nM | O=C(c1ccc(-c2cccs2)cc1)N1CCn2c(nnc2-c2csc(N3CCOCC3)n2)C1 [Compound 55, (3-(2-morpholinothiazol-4-yl)-5,6-dihydro-[1,2,4]triazolo[4,3-a]pyrazin-7(8H)-yl)(4-(thiophen-2-yl)phenyl)methanone]
15 | < 500 nM | O=C(c1ccc(-c2cccs2)cc1)N1CCn2c(nnc2-c2csc(-c3cccs3)n2)C1 [Compound 194, (4-(thiophen-2-yl)phenyl)(3-(2-(thiophen-2-yl)thiazol-4-yl)-5,6-dihydro-[1,2,4]triazolo[4,3-a]pyrazin-7(8H)-yl)methanone]
16 | < 500 nM | O=C(c1ccc(-c2ccc(F)cc2)cc1)N1CCn2c(nnc2-c2csc(-c3cccs3)n2)C1 [Compound 196, (4′-fluoro-[1,1′-biphenyl]-4-yl)(3-(2-(thiophen-2-yl)thiazol-4-yl)-5,6-dihydro-[1,2,4]triazolo[4,3-a]pyrazin-7(8H)-yl)methanone]

The remaining lines, values behind:

Row | SMILES | Ki
17 | O=C(c1ccc(F)cc1)N1CCn2c(nnc2-c2ccc3cccc(F)c3n2)C1 [Compound 22, (4-fluorophenyl)(3-(8-fluoroquinolin-2-yl)-5,6-dihydro-[1,2,4]triazolo[4,3-a]pyrazin-7(8H)-yl)methanone] | 500 to 1000 nM
18 | O=C(c1ccc(F)cc1)N1CCn2c(nnc2-c2noc(-c3ccccc3)n2)C1 [Compound 173, (4-fluorophenyl)(3-(5-phenyl-1,2,4-oxadiazol-3-yl)-5,6-dihydro-[1,2,4]triazolo[4,3-a]pyrazin-7(8H)-yl)methanone] | < 500 nM
19 | O=C(c1ccc(-c2ccccc2)cc1)N1CCn2c(nnc2-c2csc(CS(=O)(=O)c3ccc(Cl)cc3)n2)C1 [Compound 199, [1,1′-biphenyl]-4-yl(3-(2-(((4-chlorophenyl)sulfonyl)methyl)thiazol-4-yl)-5,6-dihydro-[1,2,4]triazolo[4,3-a]pyrazin-7(8H)-yl)methanone] | 1000 to 5000 nM
20 | CC1c2nnc(-c3csc(-c4ccc(F)cc4)n3)n2CCN1C(=O)c1ccc(C#N)cc1 (centres unmarked) [Compound 216, 4-(3-(2-(4-fluorophenyl)thiazol-4-yl)-8-methyl-5,6,7,8-tetrahydro-[1,2,4]triazolo[4,3-a]pyrazine-7-carbonyl)benzonitrile] | < 500 nM
21 | O=C(c1ccc(F)cc1)N1CCn2c(nnc2-c2ccccn2)C1 [Compound 1, (4-fluorophenyl)(3-(pyridin-2-yl)-5,6-dihydro-[1,2,4]triazolo[4,3-a]pyrazin-7(8H)-yl)methanone] | 1000 to 5000 nM
22 | O=C(c1ccc(F)cc1)N1CCn2c(nnc2-c2n[nH]c(-c3ccccc3)n2)C1 [Compound 178, (4-fluorophenyl)(3-(5-phenyl-1H-1,2,4-triazol-3-yl)-5,6-dihydro-[1,2,4]triazolo[4,3-a]pyrazin-7(8H)-yl)methanone] | 1000 to 5000 nM
23 | CC1c2nnc(-c3csc(N4CCOCC4)n3)n2CCN1C(=O)c1ccc(-c2cccs2)cc1 (centres unmarked) [Compound 56, (8-methyl-3-(2-morpholinothiazol-4-yl)-5,6-dihydro-[1,2,4]triazolo[4,3-a]pyrazin-7(8H)-yl)(4-(thiophen-2-yl)phenyl)methanone] | < 500 nM
24 | O=C(c1ccc(F)cc1)N1CCn2c(nnc2-c2nc(-c3ccc(F)cc3)no2)C1 [Compound 175, (4-fluorophenyl)(3-(3-(4-fluorophenyl)-1,2,4-oxadiazol-5-yl)-5,6-dihydro-[1,2,4]triazolo[4,3-a]pyrazin-7(8H)-yl)methanone] | < 500 nM
25 | C[C@H]1c2nnc(-c3csc(N4CCOCC4)n3)n2CCN1C(=O)c1ccc(-c2ccc(F)cc2)cc1 [Compound 161, (S)-(4′-fluoro-[1,1′-biphenyl]-4-yl)(8-methyl-3-(2-morpholinothiazol-4-yl)-5,6-dihydro-[1,2,4]triazolo[4,3-a]pyrazin-7(8H)-yl)methanone] | 1000 to 5000 nM
26 | O=C(c1ccc(F)cc1)N1CCn2c(nnc2-c2csc(N3CCC(F)(F)CC3)n2)C1 [Compound 258, (3-(2-(4,4-difluoropiperidin-1-yl)thiazol-4-yl)-5,6-dihydro-[1,2,4]triazolo[4,3-a]pyrazin-7(8H)-yl)(4-fluorophenyl)methanone] | < 500 nM
27 | O=C(c1ccc(F)cc1)N1CCn2c(-c3csc(-c4ccccc4)n3)nnc2C1c1ccc(F)cc1 (centres unmarked) [Compound 41, (4-fluorophenyl)(8-(4-fluorophenyl)-3-(2-phenylthiazol-4-yl)-5,6-dihydro-[1,2,4]triazolo[4,3-a]pyrazin-7(8H)-yl)methanone] | < 500 nM
28 | O=C(c1ccc(-c2ccc(F)cc2)cc1)N1CCn2c(nnc2-c2csc(CS(=O)(=O)c3ccc(Cl)cc3)n2)C1 [Compound 200, (3-(2-(((4-chlorophenyl)sulfonyl)methyl)thiazol-4-yl)-5,6-dihydro-[1,2,4]triazolo[4,3-a]pyrazin-7(8H)-yl)(4′-fluoro-[1,1′-biphenyl]-4-yl)methanone] | 500 to 1000 nM
29 | O=C(c1ccc(F)cc1)N1CCn2c(nnc2-c2cccc(N3CCCC3)n2)C1 [Compound 37, (4-fluorophenyl)(3-(6-(pyrrolidin-1-yl)pyridin-2-yl)-5,6-dihydro-[1,2,4]triazolo[4,3-a]pyrazin-7(8H)-yl)methanone] | < 500 nM

Reference: patent publication US10544150B2, “NK-3 receptor selective antagonist compounds, pharmaceutical composition and methods for use in NK-3 receptors mediated disorders” (Ogeda SA, priority 2010, dated 2020)
